“Also recorded” adds a separate entry of the source.
Assays:
[1] = tested on: diaphyseal bone marrow derived stromal cells; experiment: Cell count, TNSALP activity and mineralization in differentiating primary bone marrow stromal cells (10 days osteogenic medium); type: cell-based, mice; settings: for number of diaphyseal bone marrow derived stromal cells: cells grown 10 days in osteogenic medium, counted after 48 h with ligand
Experimental: mRNA analysis: Primary osteoblastogenic cultures of stromal cells were prepared from femoral and tibial diaphyseal bone marrow of WT C57BL/6J mice and grown in “osteogenic medium” containing ascorbic acid, β-glycerophophate and dexamethasone (Sigma) as described by Frenkel et al. (17). Real-time RT-PCR analysis was carried out using Applied Biosystems Assay-on-Demand. Data was normalized GAPDH. Assay ID: GAPDH, Mm99999915_g1; CB1, Mm00432621_s1; CB2, Mm00438286_m1; PTHRc1, Mm00441046_m1; RUNX2, Mm00501578_m1; TNSALP, Mm00475831_m1. RT-PCR analysis was carried out using the primers described by Lee et al. (19).
(§1) In vitro effect of HU-308: Differentiating primary bone marrow stromal cells and MC3T3 E1 osteoblasts were initially incubated in osteogenic medium for 10 days followed by 2 h serum starvation. Ligands were dissolved in dimethylsulfoxide (DMSO) and further diluted to their final concentration using tissue culture medium. In the primary cultures, cells were counted after 48 h incubation in αMEM supplemented with 4% BSA and ligand. BrdU incorporation was determined in MC3T3 E1 cells after 24 h incubation with HU-308 preceded by 2 h with pertussis toxin (PTX). DNA content, tissue non-specific alkaline phosphatase (TNSALP) activity and calcium were determined in MC3T3 E1 cells grown for 20 days in osteogenic medium and supplemented with HU-308 in the last 14 days. The effect of HU-308 on osteoclast differentiation was measured in the osteoclastogenic system described above, supplemented with HU-308 dissolved initially in DMSO and diluted with medium. HU-308 was also tested in a RAW 264.7 cell grown for 7 days in RANKL-supplemented medium. For osteoclast-like cell counts the cultures were fixed in ethanol and TRAP-stained.

[2] = tested on: MC3T3 E1 cells; experiment: BrdU incorporation (DNA synthesis) in partially differentiated MC3T3 E1 osteoblastic cells; type: cell-based, murine; settings: 24 h exposure to HU-308
Experimental: as §1

[3] = tested on: mature MC3T3 E1 cells; experiment: DNA content, TNSALP activity and calcium in mature MC3T3 E1 osteoblasts; type: cell-based, murine; settings: 20 days osteogenic medium, HU-308 during last 14 days
Experimental: as §1

[4] = tested on: primary bone marrow derived monocytes; experiment: Osteoclast differentiation, TRAP-positive osteoclast-like cell count in bone marrow derived monocyte culture with M-CSF and RANKL; type: cell-based, Mouse; settings: 5 days in the presence of M-CSF and RANKL
Experimental: Mouse femoral monocytes were separated on a Ficoll gradient and grown in culture for 5 days in medium containing the osteoclast differentiation factors M-CFS and RANKL as described by Zou et al FASEB J 2002; 16:274-82). At the end of incubation cultures were analyzed for CB2 and FAAH expression by RT-PCR as described above, and were stained with an osteoclast marker tartarate-resistant acid phosphatase for direct observation of differentiated osteoclasts.
as §1, with “Ligands were dissolved in dimethylsulfoxide (DMSO) and further diluted to their final concentration using tissue culture medium.” left out, “HU-308 was also tested in a RAW 264.7 cell grown for 7 days in RANKL-supplemented medium. For osteoclast-like cell counts the cultures were fixed in ethanol and TRAP-stained.” left out

[5] = tested on: RAW 264.7 cells; experiment: Osteoclast-like cell count in RAW 264.7 cell culture; type: cell-based; settings: 7-day RAW 264.7 cell culture supplemented with M-CSF
Experimental: as §1

[6] = tested on: OVX C3H mice; experiment: OVX-induced femoral bone loss, μCT and histomorphometry; type: in vivo; settings: HU-308 10 mg/Kg/day i.p.
Experimental: Animals: Mice with a deletion of the CNR2 gene (CB2^−/− mice) (9) were crossed for 10 generations to wild type C57BL/6J mice to generate a congenic C57BL/6J CB2^−/− strain. The effect of CB2 signalling on OVX-induced bone loss was analysed in normal C3H mice (Harlan, Israel) due to their high femoral bone density (10), which allows for a substantial amount of bone loss to occur. Because of the low trabecular bone volume density in C57BL/6J females (FIG. 8A), the absolute amount of OVX-induced bone loss in these animals is small and a large sample is required to achieve statistical significance. In addition, the number of calcein labelled packets (see below) in OVX C57BL/6J mice is often too small for the calculation of bone formation parameters in the trabecular compartment. HU-308, synthetic CB2 specific agonist with a MW of 414 g/mol, was prepared as described by Hildebrand et al. (11) and injected intraperitoneally to OVX and control mice once daily as ethanol/emulphor/saline (1:1:18) solution. To study bone formation, newly formed bone was vitally labelled in all reported animals by the fluorochrome calcein (Sigma), injected intraperitoneally (15 mg/Kg) four days and one day prior to sacrifice. Groups of 8-10 mice, 8-11 or 51 weeks old, were used in each experiment. The experimental protocols were approved by the Institutional Animal Care and Use Committee, Faculty of Medicine, the Hebrew University of Jerusalem, Israel and by the Regierungspräsidium Köln for the University of Bonn, Germany.
Micro-computed tomographic (μCT) analysis: The μCT Analyses were performed as described in Example 1 above.
Histomorphometry and immunohistochemistry: After μCT image acquisition, the specimens were embedded undecalcified in Technovit 9100 (Heraeus Kulzer, Wehrheim, Germany). Longitudinal sections through the mid-frontal plane were left unstained for dynamic histomorphometry based on the vital calcein double labeling. To identify osteoclasts, consecutive sections were stained for tartrate-resistant acid phosphatase (TRAP) (14). Parameters were determined according to a standardized nomenclature (15). Immunohistochemistry was performed using paraffin-embedded decalcified sections (16) with a polyclonal first antibody raised against the human CB2(20-33) peptide (Cayman Ann Arbor, Mich.; Cat. No. 101550). The same peptide (Cayman Ann Arbor, Mich.; Cat. No. 301550) was used to block protein-antibody complex formation in control staining.
Statistical Analyses: Differences between CB2^−/− and WT mice were analysed by t-test. HU-308 and vehicle treated OVX and sham-OVX mice were analysed by ANOVA. When significant differences were indicated by ANOVA, group means were compared using the Tukey test for pairwise comparisons.

[7] = tested on: 11 week-old C3H (Harlan) mice; experiment: In vivo bone formation activity, calcein dynamic histomorphometry of distal femoral metaphysis
Experimental: The endocannabinoid 2-arachidonoyl glycerol (2AG) and the CB1 cannabinoid receptor antagonist N-(piperidin-1-yl)-5-(4-chlorophenyl)-1-(2,4-dichlorophenyl)4-methyl-1H-pyrazole-3-carboxamide hydrochloride (SR-141761A; Panikashvili et al., Nature 413: 527-531 (2001)] were dissolved in 1:1:18 ethanol:emulfor:saline (v/v/v) vehicle. Different dosages of each agent were daily injected intraperitoneally to 11 week-old C3H (Harlan) mice. 2AG was administered at 0 (vehicle control), 0.5, 5, and 20 mg/Kg body weight per day for 9 days; SR-141761A was administered at 1 and 10 mg/Kg body weight per day for 9 days.
To assess the in vivo bone formation activity the mice were given 15 mg/Kg body weight calcein intrapertoneally, four days and one day (same day as the last 2AG injection) prior to sacrifice. Femoral bones were separated immediately after sacrifice and subjected, undecalcified, to histological processing. Dynamic bone histomorphometric parameters were analyzed in the distal metaphysis (secondary spongiosa) in unstained longitudinal mid-saggital sections, using the procedure described by Parfitt et al. [J. Bone Miner. Res. 2: 595-610 (1987)]. The data obtained were statistically analyzed by Mann-Whitney U-test to determine significance of differences between the treatments.

[8] = early differentiation stage (10 days osteogenic medium)
[9] = 4 weeks from ovariectomy, distal femoral metaphysis
[10] = 2AG up to 5 mg/Kg/day i.p. for 9 days, followed by a plateau
[11] = SR-141761A up to 10 mg/Kg/day i.p. for 9 days, data not shown

In the case of `CCCCCCC(C)(C)c1cc(OC)c([C@H]2C=C(CO)C3CC2C3(C)C)c(OC)c1` (single isomer, unassigned; (+)) [HU-308, (+)-(1-a-H,-(3-H,5-a-H)-4-(2,6-dimethoxy-4-(1,1-dimethylhept-yl)phenyl]-6,6 dimethylbicycloj3.1.1]hept-2-ene-2-carbinol], the “number of diaphyseal bone marrow derived stromal cells” value [1] is reported as “potently increased”, the TNSALP activity [1, 8] is reported as “unaffected” and the matrix mineralization [1, 8] is reported as “unaffected”. For the same molecule, the “DNA synthesis (BrdU uptake)” value [2] was “stimulation”, the TNSALP activity [3] was “markedly enhanced” and the “accumulation of extracellular mineral” value [3] was “markedly enhanced”. The “cell number (measured as DNA content)” value ([3]; compared with partially differentiated cells) was “milder”, the “number of osteoclast-like cells” value [4] was “dose dependently inhibited” and the “number of osteoclast-like cells” value [5] was “reduced”. For the same molecule, the “bone formation in the trabecular compartment” value ([6]; 4 weeks from ovariectomy) was “did not stimulate”, the “OVX-induced trabecular bone loss (trabecular bone volume density)” value [6, 9] was “attenuation” and the osteoclast number [6, 9] was “further inhibited”. For the same molecule, the endocortical bone formation ([6]; 4 weeks, mid-diaphysis) was “vast stimulation”, the “size of the medullary cavity” value ([6]; 4 weeks, mid-diaphysis) was “significant reduction” and the cortical thickness ([6]; 4 weeks, mid-diaphysis, exceeded OVX and sham-OVX mice) was “marked increase”.
For `CCCCC/C=C\C/C=C\C/C=C\C/C=C\CCCC(=O)OC(CO)CO` [2AG, 2-arachidonoyl glycerol], the “uptake of fluorescently labeled calcein in bone tissue (fluorescent histological images)” value ([7]; 2AG 5 mg/Kg/day vs vehicle-treated controls) was “visibly increased”, the “mineralizing perimeter (MP) vs control” value ([7]; 2AG 5 and 20 mg/Kg/day i.p. for 9 days, p=0.019) was “substantially and significantly higher” and the “bone-formation rate (BFR) higher than the vehicle control” value ([7]; 2AG 5 and 20 mg/Kg/day intraperitoneally for 9 days, p=0.04) was “up to 44%”. For the same molecule, the mineral appositional rate ([7]; 2AG i.p. for 9 days) was “no significant effect”, the “bone-formation rate (BFR), dose response” value [7, 10] was “dose-dependent stimulation; also recorded: significant positive dose response effect” and the “mineralizing perimeter (MP), dose response” value [7, 10] was “dose-dependent increase”.
For `CCCCC/C=C\C/C=C\C/C=C\C/C=C\CCCCOC(CO)CO` [Noladin ether, 2-arachidonyl glyceryl ether, reference compound], the “number of diaphyseal bone marrow derived stromal cells” value [1] was “no significant effect”.
With `Cc1c(C(=O)NN2CCCCC2)nn(-c2ccc(Cl)cc2Cl)c1-c1ccc(Cl)cc1.Cl` [SR-141761A, N-(piperidin-1-yl)-5-(4-chlorophenyl)-1-(2,4-dichlorophenyl)4-methyl-1H-pyrazole-3-carboxamide hydrochloride] the “BFR (osteoblastic activity) vs vehicle control” value [7, 11] was “higher (but not statistically different)” and the “MP (osteoblast number) vs vehicle control” value [7, 11] was “higher and statistically different”.

Reference: US7749953B2, “Methods compositions and articles of manufacture for modulating bone growth” (Yissum Research Development Company of the Hebrew …, priority 2002, dated 2010)
